From article PMC10298284, “Synthesis and hLDH Inhibitory Activity of Analogues to Natural Products with 2,8-Dioxabicyclo[3.3.1]nonane Scaffold” (International Journal of Molecular Sciences, 2023)
Several values for one entry are separate records, joined by “and”; a condition that tells them apart may be missing. Identical values can stand only once. Like-named read-outs stand apart in the source and are kept apart here.

Tests used:
[1] = biological target: T1, recombinant human LDHA (Homo sapiens, UniProt P00338); assay: hLDHA enzymatic activity assay (kinetic spectrofluorimetric, β-NADH fluorescence decrease); format: biochemical; details: for IC50: mean ± SD of n = 3 replicates; for Selectivity Rate (IC50 hLDHB/hLDHA): ratio IC50 hLDHB / IC50 hLDHA
T1 construct: purchased Abcam
Description: (§1) Briefly, the decrease in the coenzyme β-NADH fluorescence (λemission = 460 nm) was measured for 10 min, at different concentration of inhibitors, and its slope was compared with the one obtained when there were not inhibitors added (100% enzymatic activity).
The enzymatic assay was conducted on 96-well microplates and the decrease in the β-NADH fluorescence (λexcitation = 340 nm; λemission = 460 nm) was detected in a TECAN Infinite 200 Pro M Plex fluorescent plate reader (Tecan Instrument, Inc.) at 28 °C. The activity was determined according to our previously described protocol. The final volume in each well was set to 200 µL using 100 mM potassium phosphate buffer, 0.041 units/mL LDHA, 155 µM β-NADH, 1 mM pyruvate (saturated conditions), and DMSO solutions (5%, v/v) of pure compounds at concentrations in the range of 1–600 µM. The addition of pyruvate allowed the beginning of the reaction and fluorescence was registered every 60 s during 10 min. A lineal time interval was selected to calculate the slope at every single concentration. […] The slope obtained at each concentration was compared to the one obtained for the 100% enzymatic activity control to determine the corresponding enzymatic activity. A nonlinear regression analysis in GraphPad Prism version 9.00 for Windows (GraphPad Software, La Jolla, CA, USA) was used for dose response curve, fitting of logarithm of inhibitor concentration vs. normalized enzymatic activity, to calculate IC50 values (Supplementary Material section). All measurements were made in triplicate and data were expressed as the mean ± SD.

[2] = biological target: T2, recombinant human LDHB (Homo sapiens, UniProt P07195); assay: hLDHB enzymatic activity assay (same fluorimetric protocol); format: biochemical; details: mean ± SD of n = 3 replicates
T2 construct: purchased Abcam
Description: as §1
The ability of the synthesized compounds to inhibit the hLDHB enzyme was measured using recombinant human LDHB (95%, specific activity >300 units/mg and concentration of 1.0 mg/mL, Abcam, Cambridge, UK) following the same fluorimetric protocol described in Section 3.4.

[3] = 1 mM pyruvate, 155 µM β-NADH, pH 7.3, 28 °C, read-out: hLDHA IC50
[4] = supplementary dose response curves, µM only on the axis label, read-out: IC50 (hLDHA inhibition curve)

T2 sequence (P07195 whole entry): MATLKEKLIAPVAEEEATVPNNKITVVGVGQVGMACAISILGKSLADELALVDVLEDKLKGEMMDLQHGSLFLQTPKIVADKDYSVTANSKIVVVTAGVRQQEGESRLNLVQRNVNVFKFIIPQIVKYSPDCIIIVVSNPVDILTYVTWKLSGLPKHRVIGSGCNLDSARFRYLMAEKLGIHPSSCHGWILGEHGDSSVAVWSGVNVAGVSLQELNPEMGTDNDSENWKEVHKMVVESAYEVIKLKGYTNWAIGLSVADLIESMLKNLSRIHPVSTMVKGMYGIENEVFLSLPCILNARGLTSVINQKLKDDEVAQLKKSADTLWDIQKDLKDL

SMILES | melting point | IC50 [1, 3] | Selectivity Rate (IC50 hLDHB/hLDHA) [1] | IC50 [1, 4] [µM] | IC50 ([2]; read-out: hLDHB IC50) [µM] | IC50 ([2]; supplementary dose response curves, µM only on the axis label, read-out: IC50 (hLDHB inhibition curve)) [µM] | Selectivity Rate (IC50 hLDHB/hLDHA) ([1]; listed as 70b)
COc1ccc(C23CC(c4cc(Cl)ccc4O2)c2c(O)cc(O)cc2O3)cc1OC (racemic) [(±)-44, 2-(3′,4′-Dimethoxyphenyl)-6-chlorochromane-(4→4″, 2→O-5″)-phloroglucinol] | 257 to 259 °C |  |  |  |  |  | 
COc1ccc(C2CC3=C(C(=O)O2)C2CC(c4ccc(OC)c(OC)c4)(O3)Oc3ccccc32)cc1 (racemic) [(±)-64b, 2-(3′,4′-Dimethoxyphenyl)-chromane-(4→3″, 2→O-4″)-4″-hydroxy-6″-(4‴-methoxyphenyl)-5″,6″-dihydro-2H-pyran-2″-one] |  | 96.7 ± 9 µM | >3.1 | 96.7 ± 9 | > 300 |  | 
COc1ccc([C@]23C[C@H](C4=C(C[C@@H](c5ccccc5)OC4=O)O2)c2ccccc2O3)cc1OC (racemic) [(±)-62a, 2-(3′,4′-Dimethoxyphenyl)-chromane-(4→3″, 2→O-4″)-4″-hydroxy-6″-phenyl-5″,6″-dihydro-2H-pyran-2″-one] |  | < 10 µM and 3.6 µM | 41.8 | 3.6 ± 0.3 |  | 150 ± 3.9 | 
COc1ccc(C23CC(C4=C(O2)C(=O)c2ccccc2C4=O)c2cc(Cl)ccc2O3)cc1OC (racemic) [(±)-59, 2-(3′,4′-Dimethoxyphenyl)-6-chlorochromane-(4→3″, 2→O-2″)-2″-hydroxy-1″,4″-naphthoquinone] | 124 to 127 °C |  |  |  |  |  | 
O=C1C2=C(C(=O)c3ccccc31)C1CC(c3ccc(O)c(O)c3)(O2)Oc2ccccc21 (racemic) [(±)-54, 2-(3′,4′-Dihydroxyphenyl)-chromane-(4→3″, 2→O-2″)-2″-hydroxy-1″,4″-naphthoquinone] | 190 to 192 °C (dec.) |  |  |  |  |  | 
COc1ccc(C23CC(C4=C(O2)C(=O)c2ccccc2C4=O)c2cc([N+](=O)[O-])ccc2O3)cc1OC (racemic) [(±)-58, 2-(3′.4′-Dimethoxyphenyl)-6-nitrochromane-(4→3″, 2→O-2″)-2″-hydroxy-1″,4″-naphthoquinone] | 148 to 150 °C |  |  |  |  |  | 
O=C1C2=C(C(=O)c3ccccc31)C1CC(c3ccc(O)cc3)(O2)Oc2ccc([N+](=O)[O-])cc21 (racemic) [(±)-60, 2-(4′-Hydroxyphenyl)-6-nitrochromane-(4→3″, 2→O-2″)-2″-hydroxy-1″,4″-naphthoquinone] | 270 to 273 °C (dec.) |  |  |  |  |  | 
O=c1oc2ccccc2c2c1C1CC(c3ccc(O)cc3)(Oc3ccc([N+](=O)[O-])cc31)O2 (racemic) [(±)-52, 2-(4′-Hydroxyphenyl)-6-nitrochromane-(4→3″, 2→O-4″)-4″-hydroxycoumarin] | 275 to 278 °C | 36.9 ± 1.2 µM | 1.8 | 36.9 ± 1.2 |  |  | 
O=c1oc2ccccc2c2c1C1CC(c3ccc(O)cc3)(Oc3ccccc31)O2 (racemic) [(±)-51] |  | 34.4 ± 0.8 µM | 0.9 | 34.4 ± 0.8 | 31.5 ± 3 |  | 
COc1ccc(C23CC(c4ccccc4O2)c2c(c4ccccc4oc2=O)O3)cc1OC (racemic) [(±)-48] |  | 49.6 ± 1.7 µM | >6.0 | 49.6 ± 1.7 | > 300 |  | 
O=c1oc2ccccc2c2c1C1CC(c3ccc(O)cc3)(Oc3ccc(Cl)cc31)O2 (racemic) [(±)-53, 2-(4′-Hydroxyphenyl)-6-chlorochromane-(4→3″, 2→O-4″)-4″-hydroxycoumarin] | 250 to 252 °C (dec.) |  |  |  |  |  | 
O=c1oc2ccccc2c2c1C1CC(c3ccc(O)c(O)c3)(Oc3ccc([N+](=O)[O-])cc31)O2 (racemic) [(±)-46, 2-(3′,4′-Dihydroxyphenyl)-6-nitrochromane-(4→3″, 2→O-4″)-4″-hydroxycoumarin] | 128 to 130 °C (dec.) |  |  |  |  |  | 
COc1ccc(C23CC(C4=C(O2)C(=O)c2ccccc2C4=O)c2ccccc2O3)cc1OC (racemic) [(±)-57] |  | 42.2 ± 2.4 µM | >7.1 | 42.2 ± 2.4 | > 300 |  | 
COc1ccc([C@]23C[C@H](C4=C(C[C@H](c5ccccc5)OC4=O)O2)c2ccccc2O3)cc1OC (racemic) [(±)-62b, 2-(3′,4′-Dimethoxyphenyl)-chromane-(4→3″, 2→O-4″)-4″-hydroxy-6″-phenyl-5″,6″-dihydro-2H-pyran-2″-one] |  | 39.4 ± 1.2 µM | >7.6 | 39.4 ± 1.2 | > 300 |  | 
O=C1C2=C(C(=O)c3ccccc31)C1CC(c3ccc(O)cc3)(O2)Oc2ccc(Cl)cc21 (racemic) [(±)-61, 2-(4′-Hydroxyphenyl)-6-chlorochromane-(4→3″, 2→O-2″)-2″-hydroxy-1″,4″-naphthoquinone] | 249 to 251 °C |  |  |  |  |  | 

The next lines start with the values.

melting point | IC50 [1, 3] | Selectivity Rate (IC50 hLDHB/hLDHA) [1] | IC50 [1, 4] [µM] | IC50 ([2]; read-out: hLDHB IC50) [µM] | IC50 ([2]; supplementary dose response curves, µM only on the axis label, read-out: IC50 (hLDHB inhibition curve)) [µM] | Selectivity Rate (IC50 hLDHB/hLDHA) ([1]; listed as 70b) | SMILES
 | 20.2 ± 0.7 µM | 14.5 | 20.2 ± 0.7 | 292 ± 4.1 |  | > 10 | COc1ccc(C2CC3=C(C(=O)O2)C2CC(c4ccc(OC)c(OC)c4)(O3)Oc3ccc(Cl)cc32)cc1 (racemic) [(±)-70b, 2-(3′.4′-Dimethoxyphenyl)-6-chlorochromane-(4→3″, 2→O-4″)-4″-hydroxy-6″-(4‴-methoxyphenyl)-5″,6″-dihydro-2H-pyran-2″-one]
106 to 108 °C |  |  |  |  |  |  | COc1ccc(C23CC(C4=C(CC(c5ccccc5)OC4=O)O2)c2cc(Cl)ccc2O3)cc1OC (racemic) [(±)-68a, 2-(3′,4′-Dimethoxyphenyl)-6-chlorochromane-(4→3″, 2→O-4″)-4″-hydroxy-6″-phenyl-5″,6″-dihydro-2H-pyran-2″-one]
 | 14.6 ± 0.3 µM | 3.7 | 14.6 ± 0.3 | 53.7 ± 0.9 |  |  | COc1ccc(C2CC3=C(C(=O)O2)C2CC(c4ccc(OC)c(OC)c4)(O3)Oc3ccc([N+](=O)[O-])cc32)cc1 (racemic) [(±)-67b, 2-(3′,4′-Dimethoxyphenyl)-6-nitrochromane-(4→3″, 2→O-4″)-4″-hydroxy-6″-(4‴-methoxyphenyl)-5″,6″-dihydro-2H-pyran-2″-one]
 | 14.2 ± 0.8 µM | 5.4 | 14.2 ± 0.8 | 77 ± 9.7 |  |  | COc1ccc(C23CC(C4=C(CC(c5ccc(Cl)cc5)OC4=O)O2)c2cc(Cl)ccc2O3)cc1OC (racemic) [(±)-69b, 2-(3′,4′-Dimethoxyphenyl)-6-chlorochromane-(4→3″, 2→O-4″)-6″-(4‴-chlorophenyl)-4″-hydroxy-5″,6″-dihydro-2H-pyran-2″-one]
 | < 10 µM and 6 µM | 3.4 | 6 ± 0.1 | 20.4 ± 0.7 |  |  | COc1ccc(C23CC(C4=C(CC(c5ccc(Cl)cc5)OC4=O)O2)c2cc([N+](=O)[O-])ccc2O3)cc1OC (racemic) [(±)-66b, 2-(3′,4′-Dimethoxyphenyl)-6-nitrochromane-(4→3″, 2→O-4″)-6″-(4‴-chlorophenyl)-4″-hydroxy-5″,6″-dihydro-2H-pyran-2″-one]
110 to 112 °C |  |  |  |  |  |  | COc1ccc(C23CC(C4=C(CC(c5ccc(Cl)cc5)OC4=O)O2)c2ccccc2O3)cc1OC (racemic) [(±)-63a, 2-(3′,4′-Dimethoxyphenyl)-chromane-(4→3″, 2→O-4″)-6″-(4‴-chlorophenyl)-4″-hydroxy-5″,6″-dihydro-2H-pyran-2″-one]
 | < 10 µM and 8.5 µM | >35.3 | 8.5 ± 0.4 | > 300 |  |  | COc1ccc(C23CC(C4=C(CC(c5ccccc5)OC4=O)O2)c2cc([N+](=O)[O-])ccc2O3)cc1OC (racemic) [(±)-65b, 2-(3′,4′-Dimethoxyphenyl)-6-nitrochromane-(4→3″, 2→O-4″)-4″-hydroxy-6″-phenyl-5″,6″-dihydro-2H-pyran-2″-one]
